Assay results as given in the supplement of paper PMC10307832.

Key:
Assay in all cases: relative viability (nuclei count vs DMSO), 5 days (fraction); higher = more cells survive
QS11 + Crizotinib = compound: C1CC2=C(C1)C=C(C=C2)OC3=NC(=C4C(=N3)N(C=N4)CC5=CC=C(C=C5)C6=CC=CC=C6)N[C@@H](CC7=CC=CC=C7)CO [QS11] + C[C@@H](Oc1cc(-c2cnn(C3CCNCC3)c2)cnc1N)c1c(Cl)ccc(F)c1Cl [Crizotinib] (partner 1 µM)
Outline: (§1)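 Lung cancer cell lines were seeded in 1536-well plates and dosed by pin tool the next day, with either a single drug or a fixed anchor-drug dose combined with five library-drug doses (not always all listed) spaced in √10 steps. Five days later, one step fixed the cells and stained their nuclei (final 0.05% Triton X-100, 1% formaldehyde, 1 ug/ml Hoechst), and nuclei were counted on 4× images. Relative viability is the nuclei count in treated wells divided by the count in vehicle wells, and each value is the median of duplicate plates.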

[1] = compound: C[As](C)SC[C@H](NC(=O)CC[C@H](N)C(=O)O)C(=O)NCC(=O)O [Darinaparsin] + CC(C)C[C@H](NC(=O)[C@H](Cc1ccccc1)NC(=O)c1cnccn1)B(O)O [Bortezomib] (partner 0.002 µM)
Outline: as §1

Darinaparsin + OSI-027 = compound: C[As](C)SC[C@H](NC(=O)CC[C@H](N)C(=O)O)C(=O)NCC(=O)O [Darinaparsin] + COc1cccc2cc(-c3nc([C@H]4CC[C@H](C(=O)O)CC4)n4ncnc(N)c34)[nH]c12 [OSI-027] (partner 0.5 µM)
Outline: as §1

Darinaparsin + Dasatinib = compound: C[As](C)SC[C@H](NC(=O)CC[C@H](N)C(=O)O)C(=O)NCC(=O)O [Darinaparsin] + Cc1nc(Nc2ncc(C(=O)Nc3c(C)cccc3Cl)s2)cc(N2CCN(CCO)CC2)n1 [Dasatinib] (partner 0.075 µM)
Outline: as §1

## LCLC-97TM1
QS11 + Crizotinib; first compound 0.08 µM
  relative viability: 0.275
QS11 + Crizotinib; first compound 0.253 µM
  relative viability: 0.351
QS11 + Crizotinib; first compound 0.8 µM
  relative viability: 0.392
QS11 + Crizotinib; first compound 2.53 µM
  relative viability: 0.403
QS11 + Crizotinib; first compound 8 µM
  relative viability: 0.355
[1]; first compound 0.08 µM
  relative viability: 0.765
[1]; first compound 0.8 µM
  relative viability: 0.513
[1]; first compound 2.53 µM
  relative viability: 0.416
[1]; first compound 8 µM
  relative viability: 0.481
Darinaparsin + OSI-027; first compound 0.08 µM
  relative viability: 0.654
Darinaparsin + OSI-027; first compound 0.8 µM
  relative viability: 0.468
Darinaparsin + OSI-027; first compound 2.53 µM
  relative viability: 0.514
Darinaparsin + OSI-027; first compound 8 µM
  relative viability: 0.615
Darinaparsin + Dasatinib; first compound 0.08 µM
  relative viability: 0.922
Darinaparsin + Dasatinib; first compound 0.8 µM
  relative viability: 0.664
Darinaparsin + Dasatinib; first compound 2.53 µM
  relative viability: 0.615
Darinaparsin + Dasatinib; first compound 8 µM
  relative viability: 0.98
